Reference: patent publication US9131690B2, “Macrocyclic picolinamides as fungicides” (Dow AgroSciences LLC, priority 2012, dated 2015)
Where two headings read alike, the source gives them in different places.

Assays:
[1] = system: Mycosphaerella graminicola; Anamorph: Septoria tritici; assay: Fungicidal activity: Leaf Blotch of Wheat (SEPTTR), wheat plants variety Yuma; format: in vivo; conditions: Zymoseptoria tritici
Protocol: Evaluation of Fungicidal Activity: Leaf Blotch of Wheat (Mycosphaerella graminicola; Anamorph: Septoria tritici; Bayer Code […]) Wheat plants (variety Yuma) were grown from seed in a greenhouse in 50% mineral soil/50% soil-less Metro mix until the first leaf was fully emerged, with 7-10 seedlings per pot. These plants were inoculated with an aqueous spore suspension of Septoria tritici either prior to or after fungicide treatments. After inoculation the plants were kept in 100% relative humidity (one day in a dark dew chamber followed by two to three days in a lighted dew chamber) to permit spores to germinate and infect the leaf. The plants were then transferred to a greenhouse at 20° C. for disease to develop.

[2] = system: Puccinia triticina. Synonym: Puccinia recondite f. sp. tritici; assay: Fungicidal activity: Wheat Brown Rust (PUCCRT), wheat plants variety Yuma; format: in vivo; set-up: key to PUCCRT 3DC Disease Control: A: 50-100; B: More than 0-Less than 50; C: Not Tested; D: No activity noticed in this bioassay; conditions: for pest or weed control at 100 ppm: Puccinia triticina
Protocol: Evaluation of Fungicidal Activity: Wheat Brown Rust (Puccinia triticina. Synonym: Puccinia recondite f. sp. tritici; Bayer Code PUCCRT) Wheat plants (variety Yuma) were grown from seed in a greenhouse in 50% mineral soil/50% soil-less Metro mix until the first leaf was fully emerged, with 7-10 seedlings per pot. These plants were inoculated with an aqueous spore suspension of Puccinia recondite f. sp. tritici either prior to or after fungicide treatments. After inoculation the plants were kept in 100% relative humidity overnight to permit spores to germinate and infect the leaf. The plants were then transferred to a greenhouse set at 24 C for disease to develop.

[3] = 24 h, 1 Day Protectant, read-out: SEPTTR 1DP Disease Control
[4] = 72 h, 3 Day Curative, read-out: SEPTTR 3DC Disease Control
[5] = 24 h, 1 Day Protectant, read-out: PUCCRT 1DP Disease Control
[6] = 72 h, 3 Day Curative, read-out: PUCCRT 3DC Disease Control

SMILES | melting point | pest or weed control at 100 ppm [1, 3] | pest or weed control at 100 ppm [1, 4] | pest or weed control at 100 ppm [2, 5] | pest or weed control at 100 ppm [2, 6] | PUCCRT 3DC Disease Control ([2]; 100 ppm, 3 Day Curative)
COc1ccnc(C(=O)N[C@H]2COC(=O)[C@H](CCOS(C)(=O)=O)[C@@H](OC(=O)C(C)C)[C@H](C)OC2=O)c1O [Compound 56, (3S,6S,7R,8R)-3-(3-hydroxy-4-methoxypicolinamido)-6-methyl-8-(2(methylsulfonyloxy)ethyl)-4,9-dioxo-1,5-dioxonan-7-yl isobutyrate] | 153 to 155 °C | 0 to 50% | 0 to 50% | 50 to 100% | 0 to 50% | –
COc1ccnc(C(=O)N[C@H]2COC(=O)[C@H](CC3CCCCC3)[C@@H](OC(=O)C(C)C)[C@H](C)OC2=O)c1OC(C)=O [Compound 66, (3S,6S,7R,8R)-3-(3-acetoxy-4-methoxypicolinamido)-8-(cyclohexylmethyl)-6-methyl-4,9-dioxo-1,5-dioxonan-7-yl isobutyrate] | 164 to 170 °C | 50 to 100% | 50 to 100% | 50 to 100% | 50 to 100% | –
COc1ccnc(C(=O)N[C@H]2COC(=O)[C@H](CSc3ccccn3)[C@@H](OC(=O)C(C)C)[C@H](C)OC2=O)c1O [Compound 65, (3S,6S,7R,8R)-3-(3-hydroxy-4-methoxypicolinamido)-6-methyl-4,9-dioxo-8-((pyridin-2-ylthio)methyl)-1,5-dioxonan-7-yl isobutyrate] | 148 to 150 °C | 50 to 100% | 0 to 50% | 50 to 100% | 0 to 50% | –
COc1ccnc(C(=O)N[C@H]2COC(=O)[C@H](CCOC(=O)c3ccc(C(F)(F)F)cc3)[C@@H](OC(=O)C(C)C)[C@H](C)OC2=O)c1O [Compound 42] | 160 to 162 °C | 0 to 50% | 0 to 50% | 50 to 100% | – | D
COc1ccnc(C(=O)N[C@H]2COC(=O)[C@H](Cc3cccc(C(F)(F)F)c3)[C@@H](OC(=O)C(C)C)[C@H](C)OC2=O)c1O [Compound 16] | 188 to 190 °C | 50 to 100% | 0 to 50% | 50 to 100% | 0 to 50% | –

The next lines start with results.

melting point | SMILES | pest or weed control at 100 ppm [1, 3] | pest or weed control at 100 ppm [1, 4] | pest or weed control at 100 ppm [2, 5] | pest or weed control at 100 ppm [2, 6] | PUCCRT 3DC Disease Control ([2]; 100 ppm, 3 Day Curative)
92 to 95 °C | COc1ccnc(C(=O)N[C@H]2COC(=O)[C@H](Cc3ccccn3)[C@@H](OC(=O)C(C)C)[C@H](C)OC2=O)c1O [Compound 3] | 50 to 100% | 50 to 100% | 50 to 100% | 50 to 100% | –
131 to 133 °C | COc1ccnc(C(=O)N[C@H]2COC(=O)[C@H](Cc3ccc(C)cc3)[C@@H](OC(=O)C(C)C)[C@H](C)OC2=O)c1OCOC(=O)C(C)C [Compound 22] | 0 to 50% | 0 to 50% | 50 to 100% | 50 to 100% | –
214 to 216 °C | COc1ccnc(C(=O)N[C@H]2COC(=O)[C@H](Cc3ccc(-c4ccccc4)cc3)[C@@H](OC(=O)C(C)C)[C@H](C)OC2=O)c1O [Compound 12] | 50 to 100% | 0 to 50% | 50 to 100% | 0 to 50% | –
142 to 144 °C | COc1ccnc(C(=O)N[C@H]2COC(=O)[C@H](CCc3ccc(F)cc3)[C@@H](OC(=O)C(C)C)[C@H](C)OC2=O)c1O [Compound 58] | 50 to 100% | 0 to 50% | 50 to 100% | 50 to 100% | –
68 to 69 °C | COc1ccnc(C(=O)N[C@H]2COC(=O)[C@H](CCOC(=O)C3CC3)[C@@H](OC(=O)C(C)C)[C@H](C)OC2=O)c1OCOC(=O)C(C)C [Compound 26] | 0 to 50% | 0 to 50% | 50 to 100% | 50 to 100% | –
208 to 210 °C | COc1ccnc(C(=O)N[C@H]2COC(=O)[C@H](Cc3ccc(F)cc3)[C@@H](OC(=O)C(C)C)[C@H](C)OC2=O)c1O [Compound 1, (3S,6S,7R,8R)-8-(4-fluorobenzyl)-3-(3-hydroxy-4-methoxypicolinamido)-6-methyl-4,9-dioxo-1,5-dioxonan-7-yl isobutyrate] | 50 to 100% | 0 to 50% | 50 to 100% | 0 to 50% | –
